What was measured:
Raji [1] = assay: Inhibition of EBV-early antigen activation in human Raji cells assessed as early antigen activation at 4 mM; format: cell-based; parameters: scale not given: the % may be the effect or the level left; settings: human gammaherpesvirus 4
Raji [2] = assay: Inhibition of 12-O-tetradecanoylphorbol-13-acetate-induced EBV-early antigen activation in human Raji cells assessed as early antigen activation at 4 mM ratio relative to TPA; format: cell-based; parameters: scale not given: the % may be the effect or the level left; settings: human gammaherpesvirus 4

Which Activity (Raji [1]) does the source give for `CCCC(=O)O` here?
Its Activity is 0.1%.

And the Activity (Raji [2])?
Its Activity is 34.5%.

Source: ChEMBL document CHEMBL1147301, “Studies on inhibitors of skin-tumor promotion. Inhibitory effects of triterpenes from Cochlospermum tinctorium on Epstein-Barr virus activation” (J Nat Prod, 1989)
